Publication PMC5118688 (Scientific Reports, 2016)
Converted amounts (≈) assume the structure as drawn. Where two headings read alike, the source gives them in different places.

Tests used:
[1] = ref Hua et al. 11; cited from earlier work
[2] = system: mAb3C9; test: optimized chemosynthesized antigen-based dcELISA (mAb3C9 and hapten 6-OVA); settings: for CR (%): Hapten 6-OVA, (IC50 of parathion-methyl/IC50 of pesticide) × 100; for LOD (IC10): mAb3C9, Hapten 6-OVA; for IC50 ± SD: mAb3C9, coating antigen Hapten 6-OVA
Description: (§1) The dcELISA procedure was performed as below. First, the plate (Costar, Corning Inc., New York, USA) was coated with coating antigen (100 μL/well in 1 × PBS) for 1 h at 37 °C. Then, the wells were washed four times with PBST (1 × PBS with 0.05% (v/v) Tween-20) and blocked with 2% skim milk (200 μL/well) for 1 h at 37 °C. After washing four times, 50 μL analyte in MeOH-water solution and 50 μL mAb-HRP in PBS were added. The plate was incubated for 1 h at 37 °C and then washed four times before adding TMB solution (100 μL/well). After incubation for 15 min at 37 °C, 50 μL/well of H2SO4 (2 mol/L) was added to stop the reaction, and the absorbance was recorded at 450 nm using the Model 680 plate reader (Bio-Rad, USA).
(§2) 18 kinds of O,O-dimethyl OPs and 6 kinds of O,O-diethyl OPs were purchased from National Standards of China and used for the selectivity and sensitivity study using the optimized dcELISA procedure. […] The IC50 value and detection limit of each OP were calculated. The CR value, which was used to evaluate the selectivity of the method, was calculated using the following equation:

[3] = system: mAb4D11; test: optimized mAb4D11-based dcELISA; settings: mAb4D11-based dcELISA
Description: as §1, §2

[4] = system: mAb against a generic hapten (3-(4-dimethoxyphosphorothioyloxy phenyl)propanoic acid); settings: ref Liu et al. 10; cited from earlier work
[5] = system: mAb3C9; test: mimotope-based dcELISA (mAb3C9 and M20-GST-BAD/SA-HRP competitor); format: binding, mouse; settings: for CR (%): M20-GST-BAD, (IC50 of parathion-methyl/IC50 of pesticide) × 100; for LOD (IC10): mAb3C9, M20-GST-BAD; for IC50 ± SD: mAb3C9, competitor M20-GST-BAD
Description: To develop a mimotope-based dcELISA, the biotinylated mimotope fusion protein was firstly assembled with streptavidin-HRP conjugate (SA-HRP) utilized the high affinity of biotin and streptavidin. The assembly process was just mixing a certain amount of biotinylated mimotope fusion protein with SA-HRP and incubating them at 4 °C overnight before use as an HRP-labeled competitor.
An innovative mimotope-based dcELISA was developed and performed as below. […] TMB solution (100 μL/well) was added and incubated for 15 min at 37 °C.
The optimal condition for mimotope-based dcELISA was optimized as chemosynthesized antigen-based dcELISA. The selectivity and sensitivity of the developed mimotope-based dcELISA for the 24 OPs were also determined under the optimum condition.

[6] = ref Liang et al. 9; cited from earlier work

Structure (SMILES)	IC50 [1] [µg/mL]	CR (%) [2] [%]	LOD (IC10) [2] [ng/mL]	IC50 ± SD [2] [ng/mL]	CR (%) [3] [%]	IC50 [3] [ng/mL]	LOD [3] [ng/mL]	IC50 [4] [ng/mL]	CR (%) [5] [%]	LOD (IC10) [5] [ng/mL]	IC50 ± SD [5] [ng/mL]	IC50 [6] [ng/mL]
COP(=S)(OC)Oc1nc(Cl)c(Cl)cc1Cl [Chlorpyrifos-methyl]	> 100	120.7	0.7	3.9 ± 0.1 (≈ 0.0121 µM)	59.4	24.4 (≈ 0.0757 µM)	5.7	810 (≈ 2.51 µM)	122.8	0.9	4.1 ± 0.2 (≈ 0.0127 µM)	
COP(=S)(OC)Oc1ccc([N+](=O)[O-])c(C)c1 [Fenitrothion]	0.0089 (≈ 0.0321 µM)	107.1	1.1	4.4 ± 0.3 (≈ 0.0159 µM)	180.2	8.1 (≈ 0.0292 µM)	1.2	3540 (≈ 12.8 µM)	104.1	1.2	4.9 ± 0.2 (≈ 0.0177 µM)	324 (≈ 1.17 µM)
COP(=S)(OC)Oc1ccc(SC)c(C)c1 [Fenthion]	> 100	32.1	3.0	14.5 ± 1.1 (≈ 0.0521 µM)	303.6	4.8 (≈ 0.0172 µM)	0.9	1210 (≈ 4.35 µM)	21.6	4.4	23.4 ± 1.7 (≈ 0.0841 µM)	788.9 (≈ 2.83 µM)
CCOC(=O)CC(SP(=S)(OC)OC)C(=O)OCC (stereo not drawn) [Malathion]	> 100							10470 (≈ 31.7 µM)				30.1 (≈ 0.0911 µM)
COP(=S)(OC)Oc1ccc([N+](=O)[O-])cc1 [Parathion-methyl]	0.0037 (≈ 0.0141 µM)	100.0	0.9	4.7 ± 0.3 (≈ 0.0179 µM)	100.0	14.5 (≈ 0.0551 µM)	2.0	580 (≈ 2.2 µM)	100.0	0.9	5.1 ± 0.2 (≈ 0.0194 µM)	438.9 (≈ 1.67 µM)
CCOP(=S)(OCC)Oc1ccc([N+](=O)[O-])cc1 [Parathion]	0.0113 (≈ 0.0388 µM)	0.2	466.3	2412.5 ± 61.0 (≈ 8.28 µM)	8.9	163.6 (≈ 0.562 µM)	17.5		0.2	439.2	2328.4 ± 51.4 (≈ 7.99 µM)	> 1000
COP(=S)(OC)Oc1c(Cl)cc(C)cc1Cl [Tolclofos-methyl]	> 100	70.2	1.2	6.6 ± 0.3 (≈ 0.0219 µM)	46.2	31.4 (≈ 0.104 µM)	9.5	1100 (≈ 3.65 µM)	61.3	1.7	8.3 ± 0.4 (≈ 0.0276 µM)	
